Columns and labels:
Test in all cases: relative viability (nuclei count vs DMSO), 5 days (fraction); higher = more cells survive
Shikonin = compound: CC(C)=CC[C@@H](O)C1=CC(=O)c2c(O)ccc(O)c2C1=O [Shikonin]
Method in brief: (§1)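 Viability here means nuclei in treated wells divided by nuclei in vehicle wells, reported as the median across plates. Only plates with control CV below 25% and at least one doubling passed. Lung cancer cell lines in 1536-well plates were exposed to five √10-spaced library-drug doses for 5 days and counted from 4× Hoechst images in MetaXpress.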

[1] = compound: CC(C)N(CCCNC(=O)Nc1ccc(C(C)(C)C)cc1)C[C@H]1O[C@@H](n2ccc3c(N)ncnc32)[C@H](O)[C@@H]1O
Method in brief: as §1

[2] = compound: CC(C)N(CCCNC(=O)Nc1ccc(C(C)(C)C)cc1)C[C@H]1O[C@@H](n2ccc3c(N)ncnc32)[C@H](O)[C@@H]1O + Nc1nc2[nH]cc(CCc3ccc(C(=O)N[C@@H](CCC(=O)O)C(=O)O)cc3)c2c(=O)[nH]1 [Pemetrexed] (partner 0.2 µM)
Method in brief: (§2)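 One day after seeding in 1536-well plates, lung cancer cell lines were dosed by pin tool. Dosing was either single-drug or a fixed anchor-drug dose plus five library-drug doses (not always all listed) in √10 steps. After 5 days, nuclei were stained in one fix-and-stain step and counted on 4× images, and relative viability is the nuclei count of treated wells over that of vehicle wells, given as the median of duplicate plates.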

Shikonin + Alpelisib = compound: CC(C)=CC[C@@H](O)C1=CC(=O)c2c(O)ccc(O)c2C1=O [Shikonin] + Cc1nc(NC(=O)N2CCC[C@H]2C(N)=O)sc1-c1ccnc(C(C)(C)C(F)(F)F)c1 [Alpelisib] (partner 2 µM)
Method in brief: as §2

Cell Line | relative viability (Shikonin; 0.01 µM) | relative viability (Shikonin; 0.1 µM) | relative viability (Shikonin; 0.3162 µM) | relative viability (Shikonin; 1 µM) | relative viability ([1]; 0.08 µM) | relative viability ([1]; 0.253 µM) | relative viability ([1]; 0.8 µM) | relative viability ([1]; 2.53 µM) | relative viability ([1]; 8 µM) | relative viability ([2]; first compound 0.08 µM) | relative viability ([2]; first compound 0.253 µM) | relative viability ([2]; first compound 0.8 µM) | relative viability ([2]; first compound 2.53 µM) | relative viability ([2]; first compound 8 µM) | relative viability (Shikonin + Alpelisib; first compound 0.01 µM) | relative viability (Shikonin + Alpelisib; first compound 0.1 µM) | relative viability (Shikonin + Alpelisib; first compound 0.3162 µM) | relative viability (Shikonin + Alpelisib; first compound 1 µM)
NCI-H1651 | 1.09 | 0.919 | 1.01 | 1.02 | 0.963 | 0.918 | 0.92 | 1 | 0.957 | 0.654 | 0.527 | 0.57 | 0.599 | 0.601 | 0.921 | 0.98 | 1 | 1.07
NCI-H1666 | 0.966 | 1.02 | 1.08 | 1.05 | 1.06 | 1.03 | 0.975 | 1.05 | 0.914 | 0.895 | 0.909 | 0.919 | 0.796 | 0.819 | 0.915 | 0.964 | 1.07 | 0.856
NCI-H1734 | 0.935 | 1.15 | 1.02 | 0.991 | 0.926 | 0.804 | 0.962 | 0.949 | 0.916 | 0.397 | 0.417 | 0.431 | 0.417 | 0.412 | 0.7 | 0.722 | 0.788 | 0.663
NCI-H1755 | 1.03 | 1.01 | 1.12 | 1 | 1.01 | 0.944 | 0.856 | 0.926 | 0.913 | 0.391 | 0.447 | 0.387 | 0.489 | 0.348 | 1.02 | 0.946 | 1.07 | 0.97
NCI-H1792 | 0.987 | 0.991 | 0.922 | 1.22 | 1.06 | – | 0.812 | 0.912 | 0.99 | 0.769 | – | 0.697 | 0.882 | 0.747 | 0.776 | 0.557 | 0.786 | 0.727
NCI-H1793 | 0.926 | 1.1 | 0.85 | 0.936 | 0.865 | – | 0.861 | 0.891 | 0.854 | 0.77 | – | 0.831 | 0.801 | 0.767 | 0.863 | 0.779 | 0.754 | 0.722
NCI-H1915 | 1.07 | 1.17 | 1.05 | 1.06 | 0.957 | 1.01 | 0.848 | 0.947 | 0.942 | 0.444 | 0.473 | 0.449 | 0.467 | 0.497 | 1.09 | 1.12 | 1.13 | 1.04
NCI-H1944 | 0.993 | 1.06 | 1.12 | 0.986 | 0.979 | 0.878 | 0.762 | 0.976 | 0.936 | 0.601 | 0.593 | 0.552 | 0.695 | 0.595 | 0.747 | 0.936 | 0.992 | 0.909
NCI-H1975 | 0.956 | 0.946 | 0.955 | 1.05 | 0.844 | 0.837 | 0.594 | 0.843 | 0.743 | 0.303 | 0.296 | 0.292 | 0.3 | 0.286 | 0.676 | 0.712 | 0.702 | 0.538
NCI-H1993 | 0.915 | 1.01 | 0.94 | 0.974 | 0.86 | – | 0.905 | 0.919 | 0.922 | 0.564 | – | 0.533 | 0.638 | 0.543 | – | 0.662 | 0.661 | 0.699
NCI-H2009 | 0.996 | 1.11 | 0.981 | 0.727 | 1.01 | 0.969 | 0.961 | 0.985 | 0.934 | 0.994 | 1.05 | 0.97 | 0.975 | 0.953 | 1.31 | 1.24 | 1.22 | 0.802
NCI-H2023 | 1.05 | 1.17 | 1.19 | 0.972 | 0.955 | 0.864 | 0.977 | 0.931 | 0.846 | 0.246 | 0.246 | 0.232 | 0.215 | 0.213 | 0.579 | 0.709 | 0.589 | 0.598
NCI-H2085 | 0.992 | 1.05 | 0.985 | 0.983 | 0.93 | 0.905 | 1.03 | 1.02 | 0.983 | 0.877 | 0.61 | 0.899 | 1.05 | 0.975 | 0.986 | 0.913 | 0.905 | 0.685
NCI-H2087 | 1.33 | 1.02 | 1.12 | 1.02 | 1.08 | 0.934 | 0.799 | 1.15 | 1.07 | 0.718 | 0.653 | 0.714 | 0.735 | 0.662 | 1.15 | 0.967 | 1.12 | 1.04
NCI-H2126 | 1.01 | 1.07 | 1.07 | 1.03 | 0.955 | 0.918 | 0.942 | 0.961 | 0.905 | 0.657 | 0.619 | 0.696 | 0.665 | 0.691 | 0.764 | 0.843 | 0.786 | 0.763
NCI-H2170 | 1.01 | 0.866 | 1.12 | 0.99 | 0.972 | 0.937 | 0.924 | 1.02 | 0.975 | 0.261 | 0.263 | 0.261 | 0.296 | 0.29 | 0.824 | 0.672 | 0.92 | 0.793
NCI-H2228 | 1.07 | 0.991 | 1.12 | 1.17 | 0.925 | 1 | 0.903 | 0.949 | 1.09 | 0.336 | 0.326 | 0.313 | 0.298 | 0.337 | 0.66 | 0.781 | 0.73 | 0.556
NCI-H2347 | 0.971 | 1.07 | 1.06 | 0.984 | 1.02 | 0.963 | 0.935 | 1.06 | 0.955 | 0.444 | 0.411 | 0.439 | 0.441 | 0.409 | 0.992 | 0.99 | 0.962 | 1.03

Source: the supplement of paper PMC10307832
